Assay results taken from patent US20200247855A1, “THERAPY AND DIAGNOSTICS” (OXFORD UNIVERSITY INNOVATION LIMITED, priority 2017, published 2020).
Positions of bridges follow the written chain, without caps; N, C: chain ends. Residues, ends and D or L forms follow the SMILES beside them. Chains are numbered I, II in the order given.

Legend:
[1] = target: T1, CCL8_HUMAN (Homo sapiens, UniProt P80075); test: Neutralisation of chemokine induced THP-1 cell migration; format: cell-based
T1 sequence (P80075 24-99): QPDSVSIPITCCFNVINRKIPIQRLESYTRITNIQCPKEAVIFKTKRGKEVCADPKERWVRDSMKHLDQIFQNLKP
Experimental: Table 1. Tick CKBPs described in PCT/GB2017/050563 and [17]. Tick peptide sequences isolated in yeast surface display fluorescent-activated cell sorting (FACS) screens using a labelled chemokine. Identity with Evasin-1, 4 or 3 was calculated using BLAST. Abbreviations: IXORI—Ixodes ricinus, RHISA—Rhipicephalus sanguineus, AMBMA—Amblyomma maculatum, AMBPA—Amblyomma parvum, AMBTR—Amblyomma triste, AMBAM—Amblyomma americanum, AMBCA—Amblyomma cajennense, RHIPU—Rhipicephalus pulchellus. Table 2A-C. Binding characteristics of tick CKBPs previously disclosed (PCT/GB2017/050563 and [17]). All members of the human chemokine family[164] are listed in column 1. Binding to human chemokines was determined for 14 tick CKBPs using biolayer interferometry (BLI) with calculated Kd shown as Molar (Moles/Litre). Binding data for 17 other novel tick CKBPs was assayed using yeast surface display[17,166],with positive binding results shown as “YES”. For biolayer interferometry, His-tagged purified tick CKBP was bound to a Ni-NINTA sensor on an OctetRed® 384 system, and then binding to each chemokine listed (with the exception of CCL25, CCL26, CXCL16, CXCL17, CXCL4L1, XCL2) was assayed in a cross-binding screen at a chemokine concentration of 300 nM as described. For those chemokines showing binding to a tick CKBP in the cross-binding screen, binding assays were repeated using different doses of chemokine. Association, equilibrium and dissociation data were analysed using Octet software to create corresponding fitted curves, and used to calculate Kd. For yeast surface display, (YSD) background fluorescence was controlled for by using either an empty vector or by omitting the chemokine (i.e. using streptavidin-Alexa647 alone). An arbitrary threshold of >3 fold over background mean fluorescence intensity was chosen to describe confirmed re-tests. Where binding was detected data are indicated as “YES”. […] For yeast surface display data, empty cells represent chemokines that were not tested. Binding data published in relation to previously described tick CKBPs (Evasins-1, 4 and 3) is also shown for comparison in each of FIGS. 2A-C, with the relevant data obtained from publications: [20-22,32]. Table 3: Neutralisation of human chemokines by tick CKBPs previously disclosed (PCT/GB2017/050563 and [17]). Neutralising activity was determined using a quantitative THP1 cell migration assay in a 96-well Boyden chamber with chemokine in the bottom chamber as described. Cells migrating through to the bottom chamber at 4 hours were counted using flow cytometry in a 96 well plate format. IC50 for neutralisation was determined at the chemokine EC80 dose as determined using a range of tick CKBP concentrations. Data was analysed using GraphPad Prism to determine IC50, which is shown as Molar (Moles/Litre). Empty cells represent experiments not done. Table 4—Other previously described tick CKBPs. Tick CKBPs that were also described in PCT/GB2017/050563 and Singh et al. are indicated in “Notes”. Table 5.—Novel tick CKBPs of the invention. Table 6. […] The peptide sequence prefix indicates the identity, and suffix indicate the tick species as follows: AMBCA, Amblyomma cajennense and IXORI, Ixodes ricinus. […] Individual yeast clones recovered from the library were re-tested using a FACS (fluorescence activated cell sorting), experiment. The binding of the peptide to the chemokine was assayed by measuring the percent (%), of yeast cells expressing the given peptide that exceeded a background threshold set by measuring the fluorescence of the yeast library pool treated with streptavidin-[…] alone. When more than one independent yeast clone was isolated for a given peptide-chemokine combination, the mean percent shift was calculated and reported in column 3.

[2] = target: T2, human CCL8-647 (Homo sapiens, UniProt P80075); test: Fluorescent chemokine binding to THP-1 cells (flow cytometry); format: cell-based
T2 construct: purchased Almac (UK)
T2 sequence (P80075 24-99): T1 sequence (P80075 24-99)
Experimental: P672_PEP_SCRAM (C-terminally amidated)=[…] FIG. 16(A). […] 60 μM (+) P672_PEP or P672_PEP_SCRAM were incubated with CCL8-647 (2.5 nM) for half an hour at 37° C. prior to adding to THP-1 cells and incubating everything together for a further half an hour at 37° C. Cells were then analysed using fluorescence assisted cell sorting (10,000 cells analysed) and MFI recorded. Experiment carried out in triplicate where each data point is the average of one experiment carried out in technical triplicate. Mean with SEM shown and statistical significance was determined using one-way ANOVA with Sidak's correction for multiple comparisons using Graph Pad Prism 6. ****=P<0.00005, ns=not significant.
Data are shown as mean of two technical replicates. […] Curves were fitted with 4 parameters to estimate IC50.
Fluorescent chemokine (conjugated to AlexaFluor-647) binding to THP-1 cells results in an increase in the cellular fluorescence intensity, which is quantitatively measured using flow cytometry.
Fluorescent Chemokine/Receptor Blocking Assay CCL8-647 (2.5 nM, final) or […] (1.2 nM, final) was incubated for 30 minutes with varying doses of peptide (0-100 μM, final concentration) in 50 μL assay buffer (RPMI-1640+L-glutamine (4 mM)+10% heat treated fetal bovine serum+0.2% DMSO) at 37° C. […]

[3] = tested on: human CCL5 together with CXCL8, CXCL1, CCL3 or CCL2; test: Biolayer interferometry polyvalent binding (association with CCL5, then CCL5 plus second chemokine); details: BLI, wavelength shift in association 2
Chain of human CCL5 together with CXCL8, CXCL1, CCL3 or CCL2 (P13501 24-91): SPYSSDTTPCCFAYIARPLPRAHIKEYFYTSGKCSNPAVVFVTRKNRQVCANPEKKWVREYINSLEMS
Text: FIG. 10. Polyvalent binding of CC and CXC chemokines to two-warhead evasins. […] This was followed by association with CCL5+CXCL8 (light grey trace), or with CCL5+CXCL1 (dark grey trace) or CCL5+CCL3 (black trace) (association 2), and then dissociated in buffer (dissociation).
FIG. 11. Polyvalent binding of CC and CXC chemokines to two-warhead evasins. […] This was followed by association with CCL5+CXCL8 (light grey trace), or with CCL5+CXCL1 (dark grey trace) or CCL5+CCL2 (black trace) (association 2), and then dissociated in buffer (dissociation).
The ability of 2-warhead evasins to engage in polyvalent binding of CC and CXC chemokines was further determined.

CC(C)[C@H](NC(=O)[C@@H]1CCCN1C(=O)[C@H](CCCCN)NC(=O)[C@H](Cc1ccccc1)NC(=O)[C@H](Cc1ccccc1)NC(=O)[C@H](CC(=O)O)NC(=O)[C@H](CCC(=O)O)NC(=O)[C@H](Cc1ccc(O)cc1)NC(=O)[C@H](CC(=O)O)NC(=O)[C@H](CCC(=O)O)NC(=O)[C@H](CC(=O)O)NC(=O)[C@H](CCC(=O)O)NC(=O)[C@@H](N)Cc1ccc(O)cc1)C(=O)N[C@H](C(=O)N[C@@H](CSSC[C@H](NC(=O)[C@@H](NC(=O)[C@@H](NC(=O)[C@@H]1CCCN1C(=O)[C@H](CCCCN)NC(=O)[C@H](Cc1ccccc1)NC(=O)[C@H](Cc1ccccc1)NC(=O)[C@H](CC(=O)O)NC(=O)[C@H](CCC(=O)O)NC(=O)[C@H](Cc1ccc(O)cc1)NC(=O)[C@H](CC(=O)O)NC(=O)[C@H](CCC(=O)O)NC(=O)[C@H](CC(=O)O)NC(=O)[C@H](CCC(=O)O)NC(=O)[C@@H](N)Cc1ccc(O)cc1)C(C)C)[C@@H](C)O)C(=O)N[C@@H](Cc1ccc(O)cc1)C(=O)N[C@@H](Cc1ccccc1)C(N)=O)C(=O)N[C@@H](Cc1ccc(O)cc1)C(=O)N[C@@H](Cc1ccccc1)C(N)=O)[C@@H](C)O [BK1.3] (I: H-YEDEDYEDFFKPVTCYF-NH2 / II: H-YEDEDYEDFFKPVTCYF-NH2; disulfide I:15-II:15)
IC50 [1]: 8 nM | IC50 [2]: 47 nM

P1243:P1156: two-warhead evasin: P1243_AMBAM linked via GGGGS linker to P1156_IXORI
Polyvalent (simultaneous) binding of CC and CXC chemokines [3]: can associate simultaneously with CCL5 and either CXCL8 or CXCL1
